Legend:
Format in all cases: cell-based, human
pCdk2 = assay: Immunoblot of pCdk2 in A375 cells; conditions: A375, 20 µM, 48 or 72 h
Description: (§1) A375 cells were seeded in 6 cm Petri dishes (190 300 cell/dish) and treated with different compounds at 10 or 20 μM. After 48- or 72-h treatment, the cells were scraped using warm 1× sample buffer (2% SDS, 10% glycerol, 50 mM Tris-HCl, 1.75% β-mercaptoethanol, and bromophenol blue) and boiled at 99 °C for 10 min. Total protein extracts were kept at −80 °C until use.
(§2) Protein extracts were analyzed with a 7.5 or 10% polyacrylamide SDS-PAGE and transferred to a polyvinylidene difluoride membrane (PVDF, Thermo Fisher Scientific, Waltham, MA, USA). The membranes were blocked at RT for 1 h with TBST buffer (10 mM Tris-HCl pH 7.5, 100 mM NaCl, 0.1% Tween20) containing 4% Milk (Formulat). […] Immuno-detection was carried out with an ECL kit (GE-Healthcare, Little Chalfont, UK), and the chemiluminescence signals were detected with ChemiDoc (Bio-Rad, Hercules, CA, USA).

pSer15-P53 (pP53) = assay: Immunoblot of pSer15-P53 in A375 cells; conditions: A375, 20 µM, vs untreated
Description: as §1, §2

[1] = system: Tyr705-STAT3 phosphorylation; assay: Immunoblot of p-Tyr705-STAT3 in A375 cells; conditions: A375, 20 µM; for STAT3 activity (tyrosine and serine phosphorylation): 48 h; for Tyr705-STAT3 phosphorylation: 72 h, vs untreated cells
Description: as §1
(§3) Protein extracts were analyzed with a 7.5 or 10% polyacrylamide SDS-PAGE and transferred to a polyvinylidene difluoride membrane (PVDF, Thermo Fisher Scientific, Waltham, MA, USA). The membranes were blocked at RT for 1 h with TBST buffer (10 mM Tris-HCl pH 7.5, 100 mM NaCl, 0.1% Tween20) containing 4% Milk (Formulat). Then, they were incubated on a shaker, overnight (ON) at 4 °C, with 5% BSA solution containing primary antibodies against p-Tyr705-STAT3 (#9145, 1:1000), pRb (#8516, 1:2000), pERK (#4370, 1:1000), pAkt (#4060, 1:2000), pSer15-P53 (#9286, 1:2000) (Cell Signaling Technology, Danvers, […], USA), Akt (GTX121937, 1:3000), ERK (GTX134452, 1:6000), Cyclin A2 (GTX-103042, 1:3000), p-Thr160Cdk2 (GTX-133862, 1:3000), p21 (GTX-629543, 1:3000) (Genetex, Alton Pkwj Irvine, CA, USA), p53 (Sc-263, 1:1000), STAT3 (Sc-482, 1:1000), and p-Ser727-STAT3 (Sc-136193, 1:1000) (Santa Cruz Biotechnology, Dallas, TX, USA). The membranes were washed three times with TBST buffer for 30 min and then incubated for 1 h with a horseradish-peroxidase-conjugated secondary antibody (anti-rabbit 1:6000, Genetex), (anti-mouse, 1:4000, Cell Signaling Technology, Danvers, […], USA). They were washed another three times for 30 min with TBST buffer. All protein extracts were normalized with a β-actin protein antibody (GTX-124214, 1:10,000; Genetex, Alton Pkwj Irvine, CA, USA). Immuno-detection was carried out with an ECL kit (GE-Healthcare, Little Chalfont, UK), and the chemiluminescence signals were detected with ChemiDoc (Bio-Rad, Hercules, CA, USA).

pERK1/2 = assay: Immunoblot of pERK1/2 in A375 cells; conditions: A375, 20 µM, 72 h; declined in control
Description: as §1, §3

pAkt = assay: Immunoblot of pAkt in A375 cells; conditions: A375, 20 µM, 72 h; declined in control
Description: as §1, §3

A375 cells = assay: Wound closure cell migration assay; conditions: A375, 20 µM, vs controls
Description: The wound healing assay is widely used to measure cell migration. The method is based on quantifying the rate at which cells can close an artificial scratch created in a confluent cell monolayer. A375 cells were seeded in 12-well plates (120 × 10^3 cells/well) and, once confluence was reached, the monolayer was scratched with a sterile 10 μL pipette tip. […] Then, either cryptotanshinone (4) or salviolone (7) at 10 or 20 µM was added to the culture. After 0-, 8-, 24- and 30-h culture, images were captured with Zeiss Axio Vert. (Zeiss, Milan, Italy) to measure the delay to repopulate the scratch in comparison with the non-treated control sample.

ERK1/2 = assay: Immunoblot of total ERK1/2 in A375 cells; conditions: A375, 20 µM, 72 h
Description: as §1, §2

SMILES: C[C@H]1COC2=C1C(=O)C(=O)c1c2ccc2c1CCCC2(C)C [Compound 4, cryptotanshinone]
- pCdk2 (active form of Cdk2) expression level (pCdk2): slightly reduced
- pSer15-P53 (pP53) expression / P53 phosphorylation level (pSer15-P53 (pP53)): no significant increase
- STAT3 activity (tyrosine and serine phosphorylation) [1]: did not significantly change
- Tyr705-STAT3 phosphorylation [1]: significant reduction
- pERK1/2 expression level (pERK1/2): remained high
- pAkt expression level (pAkt): remained high
- A375 cell migration rate / wound healing closure (A375 cells): slow down

SMILES: Cc1cc2ccc3c(c2cc(O)c1=O)CCCC3(C)C [Compound 7, salviolone]
- pCdk2 (active form of Cdk2) expression level (pCdk2): strongly reduced
- pSer15-P53 (pP53) expression / P53 phosphorylation level (pSer15-P53 (pP53)): higher
- STAT3 activity (tyrosine and serine phosphorylation) [1]: did not significantly change
- Tyr705-STAT3 phosphorylation [1]: significant reduction
- pERK1/2 expression level (pERK1/2): remained high
- pAkt expression level (pAkt): remained high
- total protein amount of ERK1/2 (ERK1/2): increased
- A375 cell migration rate / wound healing closure (A375 cells): did not significantly delay

Reference: article PMC8835475, “Salviolone from Salvia miltiorrhiza Roots Impairs Cell Cycle Progression, Colony Formation, and Metalloproteinase-2 Activity in A375 Melanoma Cells: Involvement of P21(Cip1/Waf1) Expression and STAT3 Phosphorylation” (International Journal of Molecular Sciences, 2022)
